# Values of other authors, collected in patent US20170151174A1, “MAGNETOENZYMATIC CARRIER SYSTEM FOR IMAGING AND TARGETED DELIVERY AND RELEASE OF ACTIVE AGENTS” (priority 2014, published 2017).
# Tested on: colon HT-29 cancer cells
# Conditions: SMase activity of 0.5 U/ml
substance,measurement,value
sphingomyelinase [SMase],cell death,80%
